The text below walks through data of patent publication US20180362531A1, “NOVEL KYNUREININE PATHWAY INHIBITORS” (STANDARD LLC, priority 2017, published 2018).

What all share (format): biochemical
One assay has as its target T1, Human TDO His-Tag (Homo sapiens, UniProt P48775).
T1 construct: purchased BPS Bioscience
Kind of assay: TDO Inhibition Screening Assay (BPS Bioscience kit, absorption at 321 nm). To be noted: room temperature, 1.5 hours. The method, then: The TDO inhibitor Screening Assay kit (BPS Bioscience) was used to test for TDO inhibition by Compound Nos. D42 and D46. The protocol is similar to IDO1 assay. TDO reaction solution (90 μl) was aliquoted into each well of a 96-well plate. 5 μl of compound solution in 10% DMSO was added to each well. 5 μl 10% DMSO was added to the positive control and blank wells. Human TDO His-Tag was diluted in 1×TDO Assay buffer at 50 ng/μl. The reaction was initiated by adding 5 μl diluted TDO. 1×TDO assay buffer was added to the blank well. After incubating at room temperature for 1.5 hours, the absorption was measured at the wavelength of 321 nm. The IC50 was calculated as described for TDO inhibition. The relative activity and IC50 was calculated as described above in Examples 3 and 4.

For another assay, the target named is T2, Human IDO2 His-Tag (Homo sapiens, UniProt Q6ZQW0).
T2 construct: purchased BPS Bioscience
T2 sequence (Q6ZQW0 1-407): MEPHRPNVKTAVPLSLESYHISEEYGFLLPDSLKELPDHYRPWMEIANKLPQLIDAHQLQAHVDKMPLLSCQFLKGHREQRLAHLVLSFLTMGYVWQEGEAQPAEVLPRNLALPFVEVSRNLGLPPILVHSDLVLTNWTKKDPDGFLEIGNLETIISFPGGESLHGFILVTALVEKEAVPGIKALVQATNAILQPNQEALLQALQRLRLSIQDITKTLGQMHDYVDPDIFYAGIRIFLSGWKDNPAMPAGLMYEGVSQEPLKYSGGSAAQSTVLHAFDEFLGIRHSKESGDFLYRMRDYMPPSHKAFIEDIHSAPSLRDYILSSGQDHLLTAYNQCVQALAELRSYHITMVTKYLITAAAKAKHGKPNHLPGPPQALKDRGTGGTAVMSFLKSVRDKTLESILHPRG
Kind of assay: IDO2 Inhibitor Screening Assay (BPS Bioscience kit, absorption at 321 nm). The conditions noted are these: room temperature, 3 hours. On the procedure: To evaluate the selectivity of IDO inhibition for Compounds Nos. D42 and D46, an assay to measure activity against IDO2 was performed. The IDO2 Inhibitor Screening Assay kit (BPS Bioscience) was used for IDO2 test. The protocol is similar to IDO1 assay. IDO2 reaction solution (90 μl) was aliquoted into each well of a 96-well plate. 5 μl of compound solution in 10% DMSO was added to each well. 5 μl 10% DMSO was added to the positive control and blank wells. Human IDO2 His-Tag was diluted in 1×IDO2 Assay buffer at 400 ng/μl. The reaction was initiated by adding 5 μl diluted IDO2. 1×IDO2 assay buffer to the blank well. After incubating at room temperature for 3 hours, the absorption was measured at the wavelength of 321 nm. The IC50 was calculated as described for IDO2.
The test compound inhibition was measured as X-fold. The control solution (DMSO) was measured as Y-fold. The relative activity, I, was the ratio of former to later, i.e. X/Y, expressed in percentile. The IC50 was the concentration of the compounds when X/Y equals 50 and calculated based on the dose-response curve.

Another assay deals with T3, Human IDO1 His-Tag (Homo sapiens, UniProt P14902).
T3 construct: purchased BPS Bioscience
T3 sequence (P14902 whole entry): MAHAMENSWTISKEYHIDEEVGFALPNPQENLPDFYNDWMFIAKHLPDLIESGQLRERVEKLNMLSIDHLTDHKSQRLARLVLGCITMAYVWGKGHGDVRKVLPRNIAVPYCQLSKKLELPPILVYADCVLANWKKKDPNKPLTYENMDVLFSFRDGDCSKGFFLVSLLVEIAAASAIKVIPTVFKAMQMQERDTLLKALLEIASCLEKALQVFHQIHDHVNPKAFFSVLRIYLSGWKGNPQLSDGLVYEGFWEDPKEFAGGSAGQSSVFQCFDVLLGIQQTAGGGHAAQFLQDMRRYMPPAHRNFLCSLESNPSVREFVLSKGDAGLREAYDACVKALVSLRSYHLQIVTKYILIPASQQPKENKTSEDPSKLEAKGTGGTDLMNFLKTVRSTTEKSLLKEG
Put plainly: IDO1 Inhibitor Screening Assay (BPS Bioscience kit, absorption at 321 nm). To be noted: room temperature, 3 hours; N.D. = Not Detected. On the procedure: IDO1 (indoleamine 2,3-dioxygenase-1) catalyzes the oxidative cleavage of the pyrrole ring of tryptophan to yield N′-formylkynurenine. The amount of N′-formylkynurenine product is able to be detected by the absorption at the wavelength of 321 nm. IDO1 inhibitor Screening Assay kit (BPS Bioscience) was used to test the compound. The assay was performed as described in the assay protocol.
IDO1 reaction solution (90 μl) was aliquoted into each well of a 96-well plate. 5 μl of the compound solution in 10% DMSO was added to each well. 5 μl 10% DMSO was added to the positive control and blank wells. Human IDO1 His-Tag was diluted to 40 ng/μl in 1×IDO1 Assay buffer. The reaction was initiated by adding 5 μl of diluted IDO1. In the blank well, only 1×IDO1 assay buffer was added instead. After incubating at room temperature for 3 hours, the absorption was measured at the wavelength of 321 nm using a microplate reader.
The relative activity, I, was the ratio of former to later, i.e. X/Y, expressed in percentile. The IC50 was the concentration of the compounds when X/Y equals 50 and calculated based on the dose-response curve.

T1 sequence (P48775 whole entry): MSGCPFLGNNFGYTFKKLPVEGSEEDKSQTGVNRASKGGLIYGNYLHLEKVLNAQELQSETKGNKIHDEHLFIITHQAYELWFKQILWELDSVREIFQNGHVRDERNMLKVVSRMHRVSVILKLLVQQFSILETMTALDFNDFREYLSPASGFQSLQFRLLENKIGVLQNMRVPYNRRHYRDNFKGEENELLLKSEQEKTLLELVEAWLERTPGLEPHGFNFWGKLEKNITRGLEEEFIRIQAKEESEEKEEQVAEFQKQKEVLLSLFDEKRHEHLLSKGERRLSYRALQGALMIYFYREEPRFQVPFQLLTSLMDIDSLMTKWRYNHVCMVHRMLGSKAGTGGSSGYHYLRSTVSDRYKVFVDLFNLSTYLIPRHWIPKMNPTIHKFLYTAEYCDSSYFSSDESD

The IC50 is the concentration at which inhibition is half-maximal. A low value points to higher potency. `N#Cc1ccc(NC(=O)NCC2c3ccccc3-c3cncn32)cc1` (stereo not drawn) [D42, 1-((5H-imidazo[5,1-a]isoindol-5-yl)methyl)-3-(4-cyanophenyl)urea]: the half-inhibitory concentration (IC50) worked out at 0.064 µM at Human TDO His-Tag and 61 nM against Human IDO1 His-Tag. In addition, the IDO2 inhibition result on Human IDO2 His-Tag was “No IDO2 inhibition was detected”.

As for `N#Cc1ccc(NC(=O)NCCC2c3ccccc3-c3cncn32)cc1` (stereo not drawn) [D46, 1-(2-(5H-imidazo[5,1-a]isoindol-5-yl)ethyl)-3-(4-cyanophenyl)urea], the IC50 at Human TDO His-Tag stood at 0.064 µM; against Human IDO1 His-Tag, 325 nM. Also, at Human IDO2 His-Tag, the IDO2 inhibition result was “No IDO2 inhibition was detected”.
